In test [1] the target is T1, BTK (Homo sapiens, UniProt Q06187).
T1 construct: High control=Cell group with added DMSO and without compound, indicating microplate readings without BTK degradation; endogenous in cells; host or cells: TMD-8 cells
The test is described as follows: Cell Degradation: BTK degradation in TMD-8 cells, HTRF assay. Type of test: cell-based. The settings on record: 6 h treatment, IC50 (DC50) of BTK degradation. In short, it runs like this: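 BTK levels read by HTRF (665 vs 620 nm) in lysates of TMD-8 cells after 6 h compound exposure (eight doses, 6-fold steps, 0.2% DMSO). Percent degradation relative to controls; four-parameter curve fitting gave DC50, with Dmax the top degradation.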
On the technique in general: TR-FRET usually uses a lanthanide donor and a delayed reading to cut background.

Test [2] has as its system HEK-293 cells. The experiment in a line: HEK-293 Cytotoxicity Assay (CellTiter-Glo). The settings on record: Homo sapiens, HEK293, 72 h incubation, CellTiter-Glo luminescence. It counts as cell-based. In short, it runs like this: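 Four-parameter fit of % inhibition gives IC50, from CellTiter-Glo luminescent viability read-out. Cells exposed for 72 h to an 8-point, 4-fold series at 0.2% DMSO.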
(In general: Cellular ATP, detected with luciferase, serves as a proxy for viable cell number.)

pIC50: −log10 of the molar value. Where only a bound is given, the exact number is not on record here.

T1 sequence (Q06187 whole entry): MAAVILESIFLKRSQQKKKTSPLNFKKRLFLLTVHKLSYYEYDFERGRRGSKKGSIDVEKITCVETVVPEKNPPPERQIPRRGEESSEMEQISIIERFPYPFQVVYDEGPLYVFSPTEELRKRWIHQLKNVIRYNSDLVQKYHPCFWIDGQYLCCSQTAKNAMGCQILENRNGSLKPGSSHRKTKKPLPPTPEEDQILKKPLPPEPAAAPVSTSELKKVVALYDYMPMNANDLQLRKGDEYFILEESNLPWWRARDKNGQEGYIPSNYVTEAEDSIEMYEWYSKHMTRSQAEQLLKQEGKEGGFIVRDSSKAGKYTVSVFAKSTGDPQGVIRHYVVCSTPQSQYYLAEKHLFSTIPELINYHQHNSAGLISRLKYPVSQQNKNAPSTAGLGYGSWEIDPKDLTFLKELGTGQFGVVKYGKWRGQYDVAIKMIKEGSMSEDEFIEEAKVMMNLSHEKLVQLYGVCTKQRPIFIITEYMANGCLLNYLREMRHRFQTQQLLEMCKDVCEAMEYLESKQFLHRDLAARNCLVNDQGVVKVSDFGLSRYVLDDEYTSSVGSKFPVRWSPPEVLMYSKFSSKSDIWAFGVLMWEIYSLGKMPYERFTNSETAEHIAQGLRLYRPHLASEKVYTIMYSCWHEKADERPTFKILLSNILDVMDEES

`Cc1nn(C2CCN(CC3CCN(c4ccc(N5CCC(=O)NC5=O)cc4)CC3)CC2)c(C)c1-c1cc2c(-c3ccc([C@@H](C)NC(=O)c4nc(C(C)(C)C)no4)c(CO)c3)ncnc2[nH]1` [Example 138, (R)-3-(tert-butyl)-N-(1-(4-(6-(1-(1-((1-(4-(2,4-dioxotetrahydropyrimidin-1(2H)-yl)phenyl)piperidin-4-yl)methyl)piperidin-4-yl)-3,5-dimethyl-1H-pyrazol-4-yl)-7H-pyrrolo[2,3-d]pyrimidin-4-yl)-2-(hydroxymethyl)phenyl)ethyl)-1,2,4-oxadiazole-5-carboxamide]: the DC50 – broadly, the midpoint of the concentration-degradation curve – in test [1] worked out at 0.29 nM. For the same compound, the pIC50 (usually the negative decadic logarithm of the IC50, by convention in mol/L) in test [2] is 5.73.

Consider `Cc1nn(C2CCN(CC3CCN(c4ccc(N5CCC(=O)NC5=O)cc4)CC3)CC2)c(C)c1-c1cc2c(-c3cc(CO)c([C@@H](C)NC(=O)c4nc(C(C)(C)C)no4)cc3F)ncnc2[nH]1` [Example 139, (R)-3-(tert-butyl)-N-(1-(4-(6-(1-(1-((1-(4-(2,4-dioxotetrahydropyrimidin-1(2H)-yl)phenyl)piperidin-4-yl)methyl)piperidin-4-yl)-3,5-dimethyl-1H-pyrazol-4-yl)-7H-pyrrolo[2,3-d]pyrimidin-4-yl)-5-fluoro-2-(hydroxymethyl)phenyl)ethyl)-1,2,4-oxadiazole-5-carboxamide], for which the DC50 in test [1] was found to be 0.5 nM. In test [2], this compound gave a pIC50 of less than 5.00.

As to `Cc1c([C@@H](C)NC(=O)c2noc(C(C)(C)C)n2)ccc(-c2ncnc3[nH]c(-c4ccc(N5CCN(CC6CCN(c7ccc(N8CCC(=O)NC8=O)cc7)CC6)CC5)nc4)cc23)c1F` [Example 140, (R)-5-(tert-butyl)-N-(1-(4-(6-(6-(4-((1-(4-(2,4-dioxotetrahydropyrimidin-1(2H)-yl)phenyl)piperidin-4-yl)methyl)piperazin-1-yl)pyridin-3-yl)-7H-pyrrolo[2,3-d]pyrimidin-4-yl)-3-fluoro-2-methylphenyl)ethyl)-1,2,4-oxadiazole-3-carboxamide], the 50% degradation concentration (DC50) in test [1] was 1.24 nM. The pIC50 in test [2] is less than 5.00.

For the compound `Cc1cc(N2CCC(CN3CCN(c4ccc(-c5cc6c(-c7ccc([C@@H](C)NC(=O)c8noc(C(C)(C)C)n8)c(C)c7F)ncnc6[nH]5)cn4)CC3)CC2)ccc1N1CCC(=O)NC1=O` [Example 141, (R)-5-(tert-butyl)-N-(1-(4-(6-(6-(4-((1-(4-(2,4-dioxotetrahydropyrimidin-1(2H)-yl)-3-methylphenyl)piperidin-4-yl)methyl)piperazin-1-yl)pyridin-3-yl)-7H-pyrrolo[2,3-d]pyrimidin-4-yl)-3-fluoro-2-methylphenyl)ethyl)-1,2,4-oxadiazole-3-carboxamide], the half-maximal degradation concentration (DC50) in test [1] was found to be 1.23 nM. In test [2], this compound showed a pIC50 of less than 5.00.

The compound `Cc1cc(-c2ncnc3[nH]c(-c4ccc(N5CCN(CC6CCN(c7ccc(N8CCC(=O)NC8=O)cc7)CC6)CC5)nc4)c(F)c23)ccc1[C@@H](C)NC(=O)c1nc(C(C)(C)C)no1` [Example 142, (R)-3-(tert-butyl)-N-(1-(4-(6-(6-(4-((1-(4-(2,4-dioxotetrahydropyrimidin-1(2H)-yl)phenyl)piperidin-4-yl)methyl)piperazin-1-yl)pyridin-3-yl)-5-fluoro-7H-pyrrolo[2,3-d]pyrimidin-4-yl)-2-methylphenyl)ethyl)-1,2,4-oxadiazole-5-carboxamide] showed a half-maximal degradation concentration (DC50) in test [1] of 2.99 nM. This compound also showed a pIC50 in test [2] of less than 5.00.

`Cc1cc(-c2ncnc3[nH]c(-c4ccc(N5CCN(CC6CCN(c7ccc(C8CCC(=O)NC8=O)cc7)C6)CC5)cc4)cc23)ccc1[C@@H](C)NC(=O)c1nc(C(C)(C)C)no1` (stereo partly drawn) [Example 143, 3-(tert-butyl)-N-((1R)-1-(4-(6-(4-(4-((1-(4-(2,6-dioxopiperidin-3-yl)phenyl)pyrrolidin-3-yl)methyl)piperazin-1-yl)phenyl)-7H-pyrrolo[2,3-d]pyrimidin-4-yl)-2-methylphenyl)ethyl)-1,2,4-oxadiazole-5-carboxamide] yielded a DC50 in test [1] of 8.42 nM. Further, the pIC50 in test [2] is less than 5.00.

Regarding `C[C@@H](NC(=O)c1noc(C(C)(C)C)n1)c1ccc(-c2ncnc3[nH]c(-c4ccc(N5CCN(CC6CCN(c7ccc(N8CCC(=O)NC8=O)cc7)CC6)CC5)nc4)cc23)cc1CO` [Example 144, (R)-5-(tert-butyl)-N-(1-(4-(6-(6-(4-((1-(4-(2,4-dioxotetrahydropyrimidin-1(2H)-yl)phenyl)piperidin-4-yl)methyl)piperazin-1-yl)pyridin-3-yl)-7H-pyrrolo[2,3-d]pyrimidin-4-yl)-2-(hydroxymethyl)phenyl)ethyl)-1,2,4-oxadiazole-3-carboxamide], the DC50 in test [1] came to 0.26 nM. This compound also gave a negative-log IC50 (pIC50) in test [2] of less than 5.00.

As for `Cc1cc(N2CCC(CN3CCN(c4ccc(-c5cc6c(-c7ccc([C@@H](C)NC(=O)c8noc(C(C)(C)C)n8)c(CO)c7)ncnc6[nH]5)cn4)CC3)CC2)ccc1N1CCC(=O)NC1=O` [Example 145, (R)-5-(tert-butyl)-N-(1-(4-(6-(6-(4-((1-(4-(2,4-dioxotetrahydropyrimidin-1(2H)-yl)-3-methylphenyl)piperidin-4-yl)methyl)piperazin-1-yl)pyridin-3-yl)-7H-pyrrolo[2,3-d]pyrimidin-4-yl)-2-(hydroxymethyl)phenyl)ethyl)-1,2,4-oxadiazole-3-carboxamide], half-maximal degradation in test [1] (DC50) was put at 0.27 nM. Besides, the pIC50 in test [2] was less than 5.00.

`Cc1cc(-c2ncnc3[nH]c(-c4ccc(N5CCN(CC6CCN(c7ccc(N8CCC(=O)N(C)C8=O)cc7)CC6)CC5)nc4)cc23)ccc1[C@@H](C)NC(=O)c1nc(C(C)(C)C)no1` [Example 146, (R)-3-(tert-butyl)-N-(1-(2-methyl-4-(6-(6-(4-((1-(4-(3-methyl-2,4-dioxotetrahydropyrimidin-1(2H)-yl)phenyl)piperidin-4-yl)methyl)piperazin-1-yl)pyridin-3-yl)-7H-pyrrolo[2,3-d]pyrimidin-4-yl)phenyl)ethyl)-1,2,4-oxadiazole-5-carboxamide] returned a DC50 in test [1] of more than 2000 nM. For the same compound, the negative logarithm of the IC50 (pIC50) in test [2] was less than 5.00.

Turning to `Cc1cc(-c2ncnc3[nH]c(-c4ccc(N5CCN(CC6CCN(c7ccc(N8CCC(=O)NC8=O)cc7)CC6)CC5)cn4)cc23)ccc1[C@H](C)NC(=O)c1nc(C(C)(C)C)no1` [Example 147, (S)-3-(tert-butyl)-N-(1-(4-(6-(5-(4-((1-(4-(2,4-dioxotetrahydropyrimidin-1(2H)-yl)phenyl)piperidin-4-yl)methyl)piperazin-1-yl)pyridin-2-yl)-7H-pyrrolo[2,3-d]pyrimidin-4-yl)-2-methylphenyl)ethyl)-1,2,4-oxadiazole-5-carboxamide], the half-maximal degradation concentration (DC50) in test [1] is 52.7 nM. This compound also gave a pIC50 in test [2] of less than 5.00.

Turning to `Cc1cc(-c2ncnc3[nH]c(-c4ccc(N5CCN(CC6CCN(c7ccc(N8CCC(=O)NC8=O)cc7)CC6)CC5)nc4)cc23)ccc1[C@H](C)NC(=O)c1nc(C(C)(C)C)no1` [Example 148, (S)-3-(tert-butyl)-N-(1-(4-(6-(6-(4-((1-(4-(2,4-dioxotetrahydropyrimidin-1(2H)-yl)phenyl)piperidin-4-yl)methyl)piperazin-1-yl)pyridin-3-yl)-7H-pyrrolo[2,3-d]pyrimidin-4-yl)-2-methylphenyl)ethyl)-1,2,4-oxadiazole-5-carboxamide], in test [1], it took 134 nM to reach half-maximal degradation (DC50). In test [2], this compound gave a negative logarithm of the IC50 (pIC50) of 6.56.

For `Cc1nn(C2CCN(CC3CCN(c4ccc(N5CCC(=O)NC5=O)cc4)CC3)CC2)c(C)c1-c1cc2c(-c3cc(CO)c([C@@H](C)NC(=O)c4noc(C(C)(C)C)n4)cc3F)ncnc2[nH]1` [Example 149, (R)-5-(tert-butyl)-N-(1-(4-(6-(1-(1-((1-(4-(2,4-dioxotetrahydropyrimidin-1(2H)-yl)phenyl)piperidin-4-yl)methyl)piperidin-4-yl)-3,5-dimethyl-1H-pyrazol-4-yl)-7H-pyrrolo[2,3-d]pyrimidin-4-yl)-5-fluoro-2-(hydroxymethyl)phenyl)ethyl)-1,2,4-oxadiazole-3-carboxamide], the 50% degradation concentration (DC50) in test [1] came to 0.27 nM. In addition, the pIC50 in test [2] was less than 5.00.

The compound `CC(C)(C)c1noc(C(=O)N[C@@H]2CCc3cc(-c4ncnc5[nH]c(-c6ccc(N7CCN(CC8CCN(c9ccc(N%10CCC(=O)NC%10=O)cc9)CC8)CC7)cn6)cc45)ccc32)n1` [Example 150, (R)-3-(tert-butyl)-N-(5-(6-(5-(4-((1-(4-(2,4-dioxotetrahydropyrimidin-1(2H)-yl)phenyl)piperidin-4-yl)methyl)piperazin-1-yl)pyridin-2-yl)-7H-pyrrolo[2,3-d]pyrimidin-4-yl)-2,3-dihydro-1H-inden-1-yl)-1,2,4-oxadiazole-5-carboxamide] had a 50% degradation concentration (DC50) in test [1] of 1.64 nM. In addition, in test [2], the pIC50 was less than 5.00.

The compound `CC(C)(C)c1noc(C(=O)N[C@@H]2CCc3cc(-c4ncnc5[nH]c(-c6ccc(N7CCN(CC8CCN(c9ccc(N%10CCC(=O)NC%10=O)cc9)CC8)CC7)nc6)cc45)ccc32)n1` [Example 151, (R)-3-(tert-butyl)-N-(5-(6-(6-(4-((1-(4-(2,4-dioxotetrahydropyrimidin-1(2H)-yl)phenyl)piperidin-4-yl)methyl)piperazin-1-yl)pyridin-3-yl)-7H-pyrrolo[2,3-d]pyrimidin-4-yl)-2,3-dihydro-1H-inden-1-yl)-1,2,4-oxadiazole-5-carboxamide] gave a DC50 in test [1] of 3.24 nM. This compound also showed a pIC50 in test [2] of less than 5.00.

In turn, `Cc1cc(-c2ncnc3[nH]c(-n4nc(C)c(C5CCN(CC6CCN(c7ccc(N8CCC(=O)NC8=O)cc7)CC6)CC5)c4C)cc23)ccc1[C@@H](C)NC(=O)c1nc(C(C)(C)C)no1` [Example 152, (R)-3-(tert-butyl)-N-(1-(4-(6-(4-(1-((1-(4-(2,4-dioxotetrahydropyrimidin-1(2H)-yl)phenyl)piperidin-4-yl)methyl)piperidin-4-yl)-3,5-dimethyl-1H-pyrazol-1-yl)-7H-pyrrolo[2,3-d]pyrimidin-4-yl)-2-methylphenyl)ethyl)-1,2,4-oxadiazole-5-carboxamide] registered a half-maximal degradation concentration (DC50) in test [1] of more than 2000 nM. For the same compound, the pIC50 in test [2] is 5.61.

The values are drawn from US20230167118A1, “DEGRADATION OF BRUTON'S TYROSINE KINASE (BTK) BY CONJUGATION OF BTK INIDBITORS WITH E3 LIGASE LIGAND AND METHODS OF USE” (BEIGENE, LTD., priority 2020, published 2023).
